{"source": "patent US20180042922A1", "about": "(priority 2016, published 2018)", "origin": "cited, not measured here", "test_system": "patients with PTSD", "details": "RCTs", "data": [{"smiles": "COc1cc2nc(N3CCN(C(=O)c4ccco4)CC3)nc(N)c2cc1OC", "note": "[prazosin]", "values": [{"measurement": "nightmares in patients with PTSD", "result": "decrease nightmares"}]}]}
